# Results taken from patent US20030065039A1, “Biologically active 1,3-bis-aromatic-prop-2-en-1-ones, 1,3-bis-aromatic-propan-1-ones, and 1,3-bis-aromatic-prop-2-yn-1-ones” (Statens Serum Institute, priority 1997, published 2003).
# Like-named read-outs stand apart in the source and are kept apart here.
# Experiments:
# Type in all cases: cell-based
# Leishmania promastigotes = Leishmania promastigotes Assay; conditions: read-out: Leishmania IC50 ± SD
# Experimental: A WHO reference vaccine strain of L. major originally isolated from a patient in Iran and a Kenyan strain of L. donovani (MHOM(/KE/85/NLB 274) were cultured in medium 199 containing 0.02 mg/ml gentamycin, 25 mM Hepes, 4 mM L-glutamine, and 20% heat inactivated fetal calf serum (FCS). Incubation was carried out at 26° C. Promastigotes were harvested on day 3 and 6 of the culture and used for the parasite growth inhibition.
# The effect of the test compounds on promastigotes was assessed by a method similar to the one described by Pearson et al., by incubating promastigotes (3×10^6/ml) at 26° C. for 2 hrs in the presence of a given compound or the medium alone in 96 wells flat bottom microtiter plates. Following incubation, 100 μCi of 3H-thymidine was added to each well and further incubated for 18 hrs. Promastigotes were then harvested on filter paper by means of a cell harvester, extensively washed with distilled water and counted in a scintillation counter. The promastigotes were also counted microscopically and their flagellar motility was assessed.
# human lymphocytes = test: Lymphocyte Proliferation Assay; conditions: read-out: Lymphocytes IC50 ± SD
# Experimental: Human blood mononuclear cells (BMNC) from heparinized blood were isolated by metrizoate sodium-Ficoll density gradient centrifugation, washed 3 times in RPMI 1640 medium supplemented with 5% FCS and with 400 IU of penicillin plus 400 μg/ml streptomycin. BMNC were resuspended in the medium and cultured in triplicate, 0.63×10^5/ml and 160 μl per vial, in round-bottom microtiter plates with 20 μl of various concentrations of the test compound. Immediately prior to incubation, optimum concentrations of the mitogen phytohaemagglutinin (PHA) and the antigen purified protein derivative of tuberculin (PPD) were added to the cultures in a volume of 20 μl. Unstimulated control cultures were always included. Cultures were incubated for 3 or 7 days. The degree of lymphocyte proliferation was estimated by ^3H-thymidine (1 μCi per well) addition 24 h before the cells were harvested on glass fiber filters by means of a harvesting machine), and ^3H-thymidine incorporation was measured in a liquid scintillation counter. For each set of triplicate values, the median was recorded. Unstimulated cultures were always included as controls.
# Plasmodium falciparum = Plasmodium falciparum Assay; conditions: 3-H-hypoxanthine incorporation, 48 hours, read-out: Plasmodium IC50 ± SD
# Experimental: The experiments in which compounds were tested for their ability to inhibit parasite growth were performed by a modification of the method originally described by Jensen et al. (1982). 50 μl of parasitized erythrocytes (parasitemia approximately 1%) in a concentration of 5×10^8/ml and 50 μl of RPMI medium containing different concentrations of the test compound was added to each well of a 96 well flat-bottomed microtiter plate. The cultures were then incubated for 48 hours, 24 hours before termination of the culture adding 20 μl of 3-H-hypoxanthine (40 uCi/ml) was added to each well. The cultures were then harvested onto glass fiber filters using a Skatron cell harvester, and the incorporation of 3-H-hypoxanthine into the DNA of dividing parasites was determined by liquid scintillation spectrometry. Control cultures with uninfected erythrocytes and infected erythrocytes in RPMI medium without test compounds were always performed in parallel to the test cultures. In some experiments thin smears of parasite cultures were stained by Giemsa and examined under microscope (×1000). The test compounds described above, were diluted in RPMI medium immediately before use. In the experiments, chloroquine phosphate was used as a positive control as a drug known to inhibit parasite growth.
# [1] = Leishmania, promastigotes, 3H-thymidine uptake
# [2] = Lymphocyte, PHA provoked proliferation of human lymphocytes
# [3] = promastigotes, 3H-thymidine uptake
# [4] = PHA provoked proliferation of human lymphocytes
IC50 (Leishmania promastigotes; [1]),IC50 (Plasmodium falciparum; Plasmodium falciparum),Structure (SMILES),IC50 (human lymphocytes; [2]),IC50 (Leishmania promastigotes; [3]),IC50 (human lymphocytes; [4]),IC50 (Plasmodium falciparum),other results
89 ± 9 µM,25 µM,"COc1cccc(/C=C/C(=O)c2ccc(O)cc2)c1OC [2,3-OCH3-4′-OH, 2,3-dimethoxy-4′-hydroxychalcone]",70 ± 4 µM,–,–,–,–
–,–,"C=CCOc1ccc(C(=O)/C=C/c2cccc(OC)c2OC)cc1 [2,3-OCH3-4′-allyloxy]",–,49 ± 3 µM,96 ± 6 µM,26 µM,–
–,–,"COc1ccc(/C=C/C(=O)c2ccccc2OC)c(OC)c1 [2,4,2′-OCH3]",–,16 ± 1 µM,26 ± 2 µM,–,–
–,–,"COc1cc(OC)c(OC)cc1/C=C/C(=O)c1ccc(O)cc1 [2,4,5,-OCH3-4′-OH]",–,16 ± 2 µM,28 ± 2 µM,13 µM,–
–,–,"COc1cc(OC)c(/C=C/C(=O)c2ccc(O)cc2)c(OC)c1 [2,4,6-OCH3-4′-OH]",–,106 ± 8 µM,44 ± 2 µM,–,–
–,–,"COc1ccc(/C=C/C(=O)c2ccccc2O)c(OC)c1 [2,4-OCH3-2′-OH]",–,35 ± 2 µM,144 ± 9 µM,28 µM,–
–,–,"C=CCOc1ccccc1C(=O)/C=C/c1ccc(OC)cc1OC [2,4-OCH3-2′-allyloxy]",–,5 ± 0.7 µM,–,–,–
–,–,"CCCCCCOc1ccc(C(=O)/C=C/c2ccc(OC)cc2OC)cc1 [2,4-OCH3-4′-OC6H13]",–,136 ± 15 µM,–,14 µM,–
–,–,"COc1ccc(/C=C/C(=O)c2ccccc2)c(OC)c1 [2,4-OCH3]",–,15 µM,48 ± 2 µM,34 µM,–
–,–,"C=CCOc1ccc(C(=O)/C=C/c2cc(OCC=C)ccc2OCC=C)cc1 [2,5,4′-allyloxy]",–,38 ± 2 µM,61 ± 3 µM,–,–
23 ± 2 µM,–,"COc1ccc(OC)c(/C=C/C(=O)c2ccc(O)cc2)c1 [2,5-OCH3-4′-OH, 2,5-dimethoxy-4′hydroxychalcone]",22 ± 1 µM,–,–,–,–
–,–,"C=CCOc1ccc(C(=O)/C=C/c2cc(OC)ccc2OC)cc1 [2,5-OCH3-4′-allyloxy]",–,73 ± 4 µM,55 ± 2 µM,23 µM,–
–,–,"COc1cccc(OC)c1/C=C/C(=O)c1ccc(O)cc1 [2,6-OCH3-4′-OH]",–,82 ± 8 µM,60 ± 2 µM,–,–
–,–,"C=CCOc1ccc(C(=O)/C=C/c2c(OC)cccc2OC)cc1 [2,6-OCH3-4′-allyloxy]",–,81 ± 7 µM,96 ± 8 µM,–,–
22 ± 3 µM,33 µM,"COc1c(/C=C/C(=O)c2ccc(O)cc2)ccc(O)c1C [2-OCH3-3-methyl-4,4′-OH, 2-methoxy-3-methyl-4,4′-dihydroxychalcone]",27 ± 4 µM,–,–,–,–
68 ± 4 µM,19 µM,"COc1cc(O)ccc1/C=C/C(=O)c1ccc(O)cc1 [2-OCH3-4,4′-OH, 2-methoxy-4,4′-dihydroxychalcone]",94 ± 4 µM,–,–,–,–
9.7 ± 0.9 µM,5.1 µM,"CCCCCCc1cc(/C=C/C(=O)c2ccc(O)cc2)c(OC)cc1O [2-OCH3-4,4′-OH-5-hexyl, 2-methoxy-4,4′-dihydroxy-5-hexylchalcone]",46 ± 3 µM,–,–,–,–
26 ± 2 µM,10 µM,"CCCc1cc(/C=C/C(=O)c2ccc(O)cc2)c(OC)cc1O [2-OCH3-4,4′-OH-5-propyl, 2-methoxy-4,4′-dihydroxy-5-propylchalcone]",41 ± 3 µM,–,–,–,–
39 ± 5 µM,28 µM,"COc1cc(O)cc(C)c1/C=C/C(=O)c1ccc(O)cc1 [2-OCH3-4,4′-OH-6-methyl, 2-methoxy-4,4′-dihydroxy-6-methylchalcone]",53 ± 6 µM,–,–,–,–
–,–,COc1cc(O)ccc1/C=C/C(=O)c1ccc(N(C)C)cc1 [2-OCH3-4-OH-4′-N(CH3)2],–,49 ± 4 µM,111 ± 7 µM,23 µM,–
–,–,"COc1ccc(C(=O)/C=C/c2ccc(Cl)cc2Cl)c(OC)c1OC [2′,3′,4′-OCH3-2,4-Cl]",–,6.3 ± 0.6 µM,7.8 ± 0.9 µM,7.9 µM,–

IC50 (Leishmania promastigotes; [1]),IC50 (Plasmodium falciparum; Plasmodium falciparum),Structure (SMILES),IC50 (human lymphocytes; [2]),IC50 (Leishmania promastigotes; [3]),IC50 (human lymphocytes; [4]),IC50 (Plasmodium falciparum),other results
–,–,"O=C(/C=C/c1ccc(O)c(O)c1)c1ccc(O)cc1O [2′,4′,3,4-OH]",–,66 ± 2 µM,16 ± 1 µM,49 µM,–
–,–,"COc1cc(/C=C/C(=O)c2ccc(O)cc2O)ccc1O [2′,4′,4-OH-3-OCH3]",–,16 ± 2 µM,31 ± 2 µM,43 µM,–
–,–,"COc1ccc(/C=C/C(=O)c2ccc(F)cc2F)c(OC)c1 [2′,4′-F-2,4-OCH3]",–,26 ± 2 µM,74 ± 4 µM,49 µM,–
–,–,"COc1ccc(C(=O)/C=C/c2ccc(F)c(F)c2)c(OC)c1 [2′,4′-OCH3-3,4-F]",–,16 ± 1 µM,5.3 ± 0.6 µM,10 µM,–
–,–,"COc1ccc(OC)c(C(=O)/C=C/c2ccc(Cl)cc2Cl)c1 [2′,5′-OCH3-2,4-Cl]",–,7.8 ± 0.7 µM,5.7 ± 0.5 µM,–,–
14 ± 2 µM,26 µM,"COc1ccc(/C=C/C(=O)c2ccccc2Br)c(OC)c1 [2′-Br-2,4-OCH3, 2,4-dimethoxy-2′-bromochalcone]",35 ± 3 µM,–,–,–,–
–,–,"C=CCOc1ccc(C(=O)/C=C/c2cc(OC)c(OC)c(OC)c2)cc1 [3,4,5-OCH3-4′-allyloxy]",–,41 ± 4 µM,30 ± 1 µM,–,–
–,–,"CCCCOc1ccc(C(=O)/C=C/c2cc(OC)cc(OC)c2)cc1 [3,5-OCH3-4′-OC4H9]",–,35 ± 3 µM,52 ± 3 µM,17 µM,–
–,–,"COc1cc(/C=C/C(=O)c2ccc(O)cc2)cc(OC)c1 [3,5-OCH3-4′-OH]",–,12 ± 1 µM,14 ± 1 µM,25 µM,–
9.7 ± 0.9 µM,29 µM,"COc1ccc(C(=O)/C=C/c2cccc(F)c2)c(OC)c1OC [3-F-2′,3′,4′-OCH3, 3-fluoro-2′,3′,4′-trimethoxychalcone]",6.4 ± 0.4 µM,–,–,–,–
8.7 ± 0.5 µM,8.9 µM,"COc1ccc(C(=O)/C=C/c2cccc(Oc3ccccc3)c2)c(OC)c1OC [3-OC6H5-2′,3′,4′-OCH3, 3-phenoxy-2′,3′,4′-trimethoxychalcone]",17 ± 1 µM,–,–,–,–
–,–,"COc1ccc(/C=C/C(=O)c2cccc(Br)c2)c(OC)c1 [3′-Br-2,4-OCH3]",–,16 ± 1 µM,37 ± 2 µM,17 µM,–
90 ± 14 µM,–,"C=CCOc1ccc(C(=O)/C=C/c2cc(OC)c(CCCC)c(OC)c2)cc1 [4-C4H9-3,5-OCH3-4′-allyloxy, 4-butyl-3,5-dimethoxy-4′-(2-propenyloxy)chalcone]",–,–,–,–,–
19 ± 4 µM,11 µM,"C=CCOc1ccc(C(=O)/C=C/c2cc(OC)c(CCCCCC)c(OC)c2)cc1 [4-C6H13-3,5-OCH3-4′-allyloxy, 4-hexyl-3,5-dimethoxy-4′-(2-propenyloxy)chalcone]",15 ± 1 µM,–,–,–,–
21 ± 2 µM,22 µM,"COc1ccc(C(=O)/C=C/c2ccc(N(C)C)cc2)c(OC)c1OC [4-N(CH3)2-2′,3′,4′-OCH3, 4-dimethylamino-2′,3′,4′-trimethoxychalcone]",35 ± 2 µM,–,–,–,–
–,–,CN(C)c1ccc(/C=C/C(=O)c2ccc(O)cc2)cc1 [4-N(CH3)2-4′-OH],–,79 ± 6 µM,130 ± 13 µM,–,–
15 ± 2 µM,43 µM,"O=C(/C=C/c1ccc(F)cc1)c1ccc(F)cc1 [4′,4-F, 4,4′-difluorochalcone]",22 ± 1 µM,–,–,–,–
–,–,"O=C(/C=C/c1ccc([N+](=O)[O-])cc1)c1ccc([N+](=O)[O-])cc1 [4′,4-NO2, 4,4′-dinitro-chalcone]",–,–,–,–,"IC50 (Leishmania promastigotes; Leishmania): 26 ± 4 µM; IC50 (human lymphocytes; Homo sapiens, Lymphocyte): 51 ± 3 µM"
–,93 µM,"CN(C)c1ccc(C(=O)/C=C/c2ccc([N+](=O)[O-])cc2)cc1 [4′-N(CH3)2-4-NO2, 4-nitro-4′-dimethylaminochalcone]",–,–,–,–,–
27 ± 2 µM,–,"O=C(/C=C/c1ccc(F)cc1)c1ccc(C2CCCCC2)cc1 [4′-cC6H11-4-F, 4-fluoro-4′-cyclohexylchalcone]",74 ± 2 µM,–,–,–,–

Structure (SMILES),IC50 (Leishmania promastigotes; [1]),IC50 (Plasmodium falciparum; Plasmodium falciparum),IC50 (human lymphocytes; [2]),IC50 (Leishmania promastigotes; [3]),IC50 (human lymphocytes; [4]),IC50 (Plasmodium falciparum),other results
"CCCCOc1ccc(C(=O)/C=C/c2ccc(OC)cc2OC)cc1 [2,4-OCH3-4′-OC4H9, 2,4-dimethoxy-4′-butoxychalcone]",95 ± 10 µM,–,–,–,–,–,–
"CCCCOc1ccc(C(=O)/C=C/c2c(OC)cccc2OC)cc1 [2,6-OCH3-4′-OC4H9, 2,6-dimethoxy-4′-butoxychalcone]",104 ± 9 µM,14 µM,127 ± 10 µM,–,–,–,–
